Like-named read-outs stand apart in the source and are kept apart here.
Experiments:
rats = test: Diuretic and saluretic activity (urine volume and electrolyte excretion over 6 h), technique of Lipschits et al.; type: in vivo; conditions: rat; for response vs control in vivo at 25 mg/kg: 25 mg/kg po; for response vs control in vivo at 20 mg/kg: 20 mg/kg po; for response vs control in vivo at 10 mg/kg: 10 mg/kg po; for response vs control in vivo at 40 mg/kg: 40 mg/kg po
Experimental: The synthesized compounds were, therefore, subjected a pharmacological screening to evaluate a possible diuretic and salt excreting activity. Thus, an acute dose of each of the products of synthesis (20 or 25 mg/kg) was administered to rats and the amount of urine and the excretion of electrolytes was measured, following the technique described by Lipschits et al., with certain modifications (J. Pharmacol. Exp.Ther. 1943-79; 97-110).
The volume (ml/kg/6 h), the pH and the excretion of sodium, potassium and chloride ions (mEq/kg/6 h) were determined on the urine quantitatively collected over 6 hours, using triamterene and hydrochlorothiazide as reference diuretics.

[1] = Mortality rate in the mouse after a single oral dose of 1600 mg/kg; conditions: in vivo, single oral dose 1600 mg/kg
Experimental: Likewise, to complete the superficial pharmacological profile, a check was made of the mortality rate in the mouse after oral administration of a single dose of 1600 mg/kg of each of the synthesized compounds (See Table 1).

[2] = tested on: isolated guinea pig trachea; test: In vitro trachea relaxing activity (spontaneous tone in isolated trachea, method of Luduena); type: cell-based; conditions: Cavia porcellus, relative to maximum relaxation by noradrenaline 0.3 mcg/ml; for activity at 30 µg/mL: 30 mcg/ml
Experimental: The platelet antiaggregation activity was determined in vitro using platelet rich rabbit plasma and arachidonic acid (50 mcg/ml) as aggregation inducing agent. The results are given for tracheal relaxation as percentage inhibition of the tracheal tone relative to the maximum relaxation induced by noradrenaline (0.3 mcg/ml) and for the platelet aggregation as a percentage of the maximum effect observed with the proaggregation agent.

[3] = (N) = not statistically significant vs control, read-out: Cl excretion, treated group/control group ratio
[4] = (N) = not statistically significant vs control, read-out: K excretion, treated group/control group ratio
[5] = (N) = not statistically significant vs control, read-out: Na excretion, treated group/control group ratio
[6] = (N) = not statistically significant vs control, read-out: Volume urine, treated group/control group ratio
[7] = (N) = not statistically significant vs control, read-out: Na/K
[8] = read-out: Cl excretion, treated group/control group ratio
[9] = read-out: K excretion, treated group/control group ratio
[10] = read-out: Na excretion, treated group/control group ratio
[11] = read-out: Volume urine, treated group/control group ratio

## CCN1c2nc(C(F)(F)F)c(C(F)(F)F)nc2C(N)=NS1(=O)=O [1-ethyl-6,7-bis(trifluoromethyl), 4-amino-1-ethyl-6,7-bis(trifluoromethyl)pyrazino[2,3-c]-1,2,6-thiadiazine 2,2-dioxide]
rats; [3]
  response vs control in vivo at 25 mg/kg: 112%
rats; [4]
  response vs control in vivo at 25 mg/kg: 99%
rats; [5]
  response vs control in vivo at 25 mg/kg: 129%
rats; [6]
  response vs control in vivo at 25 mg/kg: 128%
rats; read-out: Na/K
  response vs control in vivo at 25 mg/kg: 130%
[1]
  mortality: 100%

## CCOC(=O)CN1c2nc(-c3ccccc3)cnc2C(N)=NS1(=O)=O [1-[(2-ethoxycarbonyl)-methyl]-7-phenyl, 4-amino-1-[(ethoxycarbonyl)methyl]-7-phenylpyrazino[2,3-c]-1,2,7-thiadiazine 2,2-dioxide]
[2]
  activity at 30 µg/mL: 72%

## CCN1c2nc(-c3ccccc3)cnc2C(N)=NS1(=O)=O [1-ethyl-7-phenyl, 4-amino-1-ethyl-7-phenylpyrazino[2,3-c]-1,2,6-thiadiazine 2,2-dioxide]
rats; [3]
  response vs control in vivo at 20 mg/kg: 136%
rats; [4]
  response vs control in vivo at 20 mg/kg: 140%
rats; [5]
  response vs control in vivo at 20 mg/kg: 131%
rats; [7]
  response vs control in vivo at 20 mg/kg: 94%
rats; [6]
  response vs control in vivo at 20 mg/kg: 121%
[2]
  activity at 30 µg/mL: 95%

## Cc1nc2c(nc1C)N(CCO)S(=O)(=O)N=C2N [1-(2-hydroxyethyl)-6,7-dimethyl, 4-amino-1-(2-hydroxyethyl)-6,7-dimethylpyrazino[2,3-c]-1,2,6-thiadiazine 2,2-dioxide]
rats; [3]
  response vs control in vivo at 25 mg/kg: 141%
rats; [4]
  response vs control in vivo at 25 mg/kg: 189%
rats; [5]
  response vs control in vivo at 25 mg/kg: 203%
rats; [6]
  response vs control in vivo at 25 mg/kg: 106%
rats; read-out: Na/K
  response vs control in vivo at 25 mg/kg: 107%
[1]
  mortality: 0%

## CCCc1nc2c(nc1C)C(N)=NS(=O)(=O)N2CC [1-ethyl-6-methyl-7-propyl, 4-amino-1-ethyl-6-methyl-7-propylpyrazino[2,3-c]-1,2,6-thiadiazine 2,2-dioxide]
rats; [3]
  response vs control in vivo at 20 mg/kg: 176%
rats; [4]
  response vs control in vivo at 20 mg/kg: 123%
rats; [5]
  response vs control in vivo at 20 mg/kg: 156%
rats; [7]
  response vs control in vivo at 20 mg/kg: 127%
rats; [6]
  response vs control in vivo at 20 mg/kg: 109%
[1]
  mortality: 50%

## CCc1nc2c(nc1C)C(NC)=NS(=O)(=O)N2CC [1,7-diethyl-4-(methylamino)-6-methyl, 1,7-diethyl-4-(methylamino)-6-methylpyrazino[2,3-c]-1,2,6-thiadiazine 2,2-dioxide]
rats; [3]
  response vs control in vivo at 20 mg/kg: 424%
rats; [4]
  response vs control in vivo at 20 mg/kg: 155%
rats; [5]
  response vs control in vivo at 20 mg/kg: 344%
rats; [7]
  response vs control in vivo at 20 mg/kg: 156%
rats; [6]
  response vs control in vivo at 20 mg/kg: 139%
[2]
  activity at 30 µg/mL: 75%

## Cc1nc2c(nc1C)N(CCN1CCOCC1)S(=O)(=O)N=C2N [1-(2-morpholinoethyl)-6,7-dimethyl, 4-amino-1-(2-morpholinoethyl)-6,7-dimethylpyrazino[2,3-c]-1,2,6-thiadiazine 2,2-dioxide]
rats; [3]
  response vs control in vivo at 25 mg/kg: 102%
rats; [4]
  response vs control in vivo at 25 mg/kg: 112%
rats; [5]
  response vs control in vivo at 25 mg/kg: 246%
rats; [6]
  response vs control in vivo at 25 mg/kg: 108%
rats; read-out: Na/K
  response vs control in vivo at 25 mg/kg: 220%
[1]
  mortality: 85%

## CCCN1c2nc(C)c(C)nc2C(N)=NS1(=O)=O [6,7-dimethyl-1-propyl, 4-amino-6,7-dimethyl-1-propylpyrazino[2,3-c]-1,2,6-thiadiazine 2,2-dioxide]
rats; [3]
  response vs control in vivo at 20 mg/kg: 593%
rats; [4]
  response vs control in vivo at 20 mg/kg: 197%
rats; [5]
  response vs control in vivo at 20 mg/kg: 609%
rats; [7]
  response vs control in vivo at 20 mg/kg: 309%
rats; [6]
  response vs control in vivo at 20 mg/kg: 175%
[1]
  mortality: 60%

## CCc1nc2c(nc1C)C(N)=NS(=O)(=O)N2C [7-ethyl-1,6-dimethyl, 4-amino-7-ethyl-1,6-dimethylpyrazino[2,3-c]-1,2,6-thiadiazine 2,2-dioxide]
rats; [3]
  response vs control in vivo at 20 mg/kg: 471%
rats; [4]
  response vs control in vivo at 20 mg/kg: 177%
rats; [5]
  response vs control in vivo at 20 mg/kg: 385%
rats; [7]
  response vs control in vivo at 20 mg/kg: 218%
rats; [6]
  response vs control in vivo at 20 mg/kg: 152%
[1]
  mortality: 0%
[2]
  activity at 30 µg/mL: 95%

## CCc1nc2c(nc1C)C(N)=NS(=O)(=O)N2CC [1,7-diethyl-6-methyl, 4-amino-1,7-diethyl-6-methylpyrazino[2,3-c]-1,2,6-thiadiazine 2,2-dioxide]
rats; [3]
  response vs control in vivo at 25 mg/kg: 787%
rats; [4]
  response vs control in vivo at 25 mg/kg: 179%
rats; [5]
  response vs control in vivo at 25 mg/kg: 823%
rats; [6]
  response vs control in vivo at 25 mg/kg: 197%
rats; read-out: Na/K
  response vs control in vivo at 25 mg/kg: 460%
[1]
  mortality: 37.5%

## Nc1nc(N)c2nc(-c3ccccc3)c(N)nc2n1 [Triamterene, reference compound]
rats; [3]
  response vs control in vivo at 20 mg/kg: 237%
  response vs control in vivo at 25 mg/kg: 260%
rats; [4]
  response vs control in vivo at 20 mg/kg: 34%
  response vs control in vivo at 25 mg/kg: 36%
rats; [5]
  response vs control in vivo at 20 mg/kg: 579%
  response vs control in vivo at 25 mg/kg: 596%
rats; [6]
  response vs control in vivo at 20 mg/kg: 145%
  response vs control in vivo at 25 mg/kg: 165%

## Cc1nc2c(nc1C)N(CCN(C(C)C)C(C)C)S(=O)(=O)N=C2N [4-amino-1-[2-(N,N-diisopropylamino)ethyl]-6,7-dimethylpyrazino[2,3-c]-1,2,6-thiadiazine 2,2-dioxide]
rats; [3]
  response vs control in vivo at 25 mg/kg: 156%
rats; [4]
  response vs control in vivo at 25 mg/kg: 94%
rats; [5]
  response vs control in vivo at 25 mg/kg: 193%
rats; [6]
  response vs control in vivo at 25 mg/kg: 84%
rats; read-out: Na/K
  response vs control in vivo at 25 mg/kg: 205%
[1]
  mortality: 62%

## NS(=O)(=O)c1cc2c(cc1Cl)NCNS2(=O)=O [Hydrochlorothiazide, reference compound]
rats; [8]
  response vs control in vivo at 10 mg/kg: 577%
  response vs control in vivo at 40 mg/kg: 626%
rats; [9]
  response vs control in vivo at 10 mg/kg: 217%
  response vs control in vivo at 40 mg/kg: 265%
rats; [10]
  response vs control in vivo at 10 mg/kg: 668%
  response vs control in vivo at 40 mg/kg: 773%
rats; read-out: Na/K
  response vs control in vivo at 10 mg/kg: 308%
  response vs control in vivo at 40 mg/kg: 292%
rats; [11]
  response vs control in vivo at 10 mg/kg: 166%
  response vs control in vivo at 40 mg/kg: 179%

## CCCN1c2nc(CC)c(C)nc2C(N)=NS1(=O)=O [1-ethyl-6-methyl-1-propyl, 4-amino-7-ethyl-6-methyl-1-propylpyrazino[2,3-c]-1,2,6-thiadiazine 2,2-dioxide]
rats; [3]
  response vs control in vivo at 20 mg/kg: 530%
rats; [4]
  response vs control in vivo at 20 mg/kg: 172%
rats; [5]
  response vs control in vivo at 20 mg/kg: 502%
rats; [7]
  response vs control in vivo at 20 mg/kg: 292%
rats; [6]
  response vs control in vivo at 20 mg/kg: 154%
[1]
  mortality: 40%

## CCN1c2nc(C)c(Br)nc2C(N)=NS1(=O)=O [6-bromo-1-ethyl-7-methyl, 4-amino-6-bromo-1-ethyl-7-methylpyrazino[2,3-c]-1,2,6-thiadiazine 2,2-dioxide]
[2]
  activity at 30 µg/mL: 88%

## CCc1nc2c(nc1C)N(CC)S(=O)(=O)N=C2N [1,6-diethyl-7-methyl, 4-amino-1,6-diethyl-7-methylpyrazino[2,3-c]-1,2,6-thiadiazine 2,2-dioxide]
rats; [3]
  response vs control in vivo at 20 mg/kg: 89%
rats; [4]
  response vs control in vivo at 20 mg/kg: 91%
rats; [5]
  response vs control in vivo at 20 mg/kg: 56%
rats; [7]
  response vs control in vivo at 20 mg/kg: 62%
rats; [6]
  response vs control in vivo at 20 mg/kg: 104%
[2]
  activity at 30 µg/mL: 95%

## CCc1nc2c(nc1C)C(NN)=NS(=O)(=O)N2CC
[2]
  activity at 30 µg/mL: 72%

## Nc1cc(-c2ccncc2)c[nH]c1=O [Amrinone, reference compound]
[2]; 3 mcg/ml
  activity at 3 µg/mL: 65%

## CCc1nc2c(nc1CC)N(CC)S(=O)(=O)N=C2N [1,6,7-triethyl, 4-amino-1,6,7-triethylpyrazino[2,3-c]-1,2,6-thiadiazine 2,2-dioxide]
rats; [3]
  response vs control in vivo at 20 mg/kg: 216%
rats; [4]
  response vs control in vivo at 20 mg/kg: 127%
rats; [5]
  response vs control in vivo at 20 mg/kg: 198%
rats; [7]
  response vs control in vivo at 20 mg/kg: 156%
rats; [6]
  response vs control in vivo at 20 mg/kg: 133%
[1]
  mortality: 50%
